Assay results from paper PMC6079455, “Discovery of Novel Caeridins from the Skin Secretion of the Australian White's Tree Frog, Litoria caerulea” (International Journal of Genomics, 2018).
Ends that are not written are not given here.

Key:
[1] = tested on: S. aureus; experiment: Membrane permeability on S. aureus (SYTOX Green); format: cell-based, Staphylococcus aureus; conditions: 2 h; for membrane-permeabilising activity on S. aureus: up to 512 μM
Method: The cell membrane permeability of S. aureus was tested with SYTOX Green Nucleic Acid Stain (Life Technologies, Carlsbad, CA, USA). The log-phase S. aureus was pelleted and suspended in 5% TSB in 0.85% NaCl solution to achieve 1 × 10^8 CFU/ml cells which was then treated with peptide solutions at 37°C for 2 h. The maximum membrane-compromised S. aureus was produced by 70% isopropanol treatment. Subsequently, cells were mixed with 5 μM SYTOX Green stain and incubated in the dark for 10 min. The fluorescence was measured in a 37°C Synergy HT plate reader (Biolise BioTek ELx808, Winooski, VT, USA) at excitation and emission wavelengths of 480 nm and 528 nm, respectively. The membrane permeability was calculated as (1) Membrane permeability%=F−F0/F1−F0×100%, where F represents the processed fluorescence intensity with peptide treatments, F0 represents the processed fluorescence intensity of untreated S. aureus, and F1 represents the processed fluorescence intensity in the maximum membrane-compromised S. aureus (70% isopropanol-treated). The fluorescence intensities of background were subtracted prior to calculation.

[2] = tested on: horse erythrocytes; experiment: Haemolytic test; format: cell-based; conditions: tested concentrations, horse red blood cells, 37°C, 2 h
Method: The haemolysis of Caeridins was tested on prepared defrinated horse red blood cells (TCS Biosciences Ltd., Buckingham, UK) by incubating equal volumes of peptide solutions with erythrocyte suspensions at 37°C for 2 H. Maximum haemolysis control was included by incubating equal volumes of 1% Triton X-100 (Sigma-Aldrich, St. Louis, MO, USA) with erythrocyte suspensions. Lysis of erythrocytes was detected by the measurement of supernatant absorbance at a wavelength of 550 nm using a Synergy HT plate reader (Biolise BioTek ELx808, Winooski, VT, USA). The level of haemolysis was as calculated as (3) Haemolysis %=A−A0/A1−A0×100%, where A represents the absorbance with peptide treatments, A0 represents the average absorbance in untreated erythrocytes, and A1 represents the average absorbance in the maximum haemolysis control (1% Triton X-100-treated).

[3] = tested on: human microvascular endothelial cell line HMEC-1; experiment: Membrane permeabilisation of HMEC-1 (LDH release); format: cell-based; conditions: 24 h; for cytotoxicity to HMEC-1 cells: 100 μM, LDH release; for membrane lysis (LDH release) of HMEC-1: 10^−7 M to 10^−4 M
Method: The membrane permeabilisation of the human microvascular endothelial cell line, HMEC-1, was evaluated using the Pierce LDH Cytotoxicity Assay Kit (Thermo Fisher Scientific, San Francisco, CA, USA). HMEC-1 cells were cultured in MCDB-131 medium (Life Technology, Paisley, UK) with 10% FBS, 10 ng/ml epidermal growth factor (EGF) (Life Technology, Paisley, UK), 10 mM L-glutamine (Life Technology, Paisley, UK), and 1% penicillin-streptomycin (Sigma-Aldrich, St. Louise, MO, USA), at 37°C under 5% CO2. Cells were seeded in a 96-well plate at 5000 cells per well and cultured overnight to 80% confluency. Then, the cells were treated with different peptide solutions of gradient concentrations from 10^−7 M to 10^−4 M for 24 h at 37°C, 5% CO2, and H2O-treated cells were made as the spontaneous LDH release control. Lysis buffer was added to cells and incubated for 45 min at 37°C, 5% CO2, to produce the lysis buffer-treated cells which were referred to as maximum LDH release control. Then 50 μl of each sample supernatant was transferred to a 96-well flat-bottom plate in triplicate wells, to which 50 μl of reaction mixture was added, incubated, and protected from light at room temperature for 30 min. After addition of 50 μl Stop Solution to each sample well and removal of bubbles present in sample wells, the absorbance at 490 nm and 680 nm was measured. The absorbance values at 680 nm were subtracted from the absorbance values at 490 nm before calculation of the level of LDH release (cytotoxicity). The level of LDH release was calculated as (2) LDH release %=L−L0/L1−L0×100%, where L refers to sample-treated LDH activity, L0 to spontaneous (H2O-treated) LDH activity, and L1 to maximum (lysis buffer-treated) LDH activity.
Data analysis was performed using one-way analysis of variance followed by Dunnett's multiple comparison tests with maximum LDH release control in GraphPad Prism (Version 6.0; GraphPad Software Inc., San Diego, CA, USA).

[4] = tested on: E. faecalis NCTC12697; experiment: Antimicrobial test (broth microdilution); format: cell-based, Enterococcus faecalis; conditions: for MIC: MHB, 5 × 10^5 CFU/ml, 37°C overnight, 550 nm
Method: (§1) The antimicrobial activities were tested by the broth microdilution method and evaluated by the determination of MIC values against different tested microorganisms, the Gram-positive bacteria, S. aureus (NCTC 10788), E. faecalis (NCTC12697), and MRSA (NCTC 12493); the Gram-negative bacterium, E. coli (NCTC 10418); and the yeast, C. albicans (NCYC 1467). The microorganisms were cultured to their log phase in MHB and diluted to 5 × 10^5 CFU/ml then subsequently treated with peptide solutions of gradient concentrations. After incubation at 37°C overnight, the growth of microorganisms was detected at a wavelength of 550 nm using a Synergy HT plate reader (Biolise BioTek ELx808, Winooski, VT, USA). The MICs were determined as the lowest concentration of peptide where […].

[5] = tested on: E. coli; experiment: Membrane permeability on E. coli (ONPG / β-galactosidase); format: cell-based, Escherichia coli; conditions: ONPG hydrolysis, absorbance 420 nm, 0-30 min, 37°C
Method: The membrane permeabilsation of E.coli was determined by measuring the release of β-galactosidase activity from E. coli into the culture medium with ONPG as the substrate. The log-phase E. coli was grown in MHB medium containing 2% lactose at 37°C, and the cells were pelleted. The cell pellets were suspended in 10 mM PBS (pH 7.4) containing 1.5 mM ONPG and diluted to 1 × 10^8 CFU/ml. Aliquots of cells were incubated with different concentrations of peptides at 37°C. Permeabilisation was measured at 420 nm every 2 min from 0 to 30 min, which reflects ONPG influx into the cells working as an indicator of the permeability of the tested peptides.

[6] = tested on: C. albicans NCYC1467; experiment: Antimicrobial test (broth microdilution); format: cell-based, Candida albicans; conditions: for MIC: MHB, 5 × 10^5 CFU/ml, 37°C overnight, 550 nm
Method: as §1

[7] = tested on: MRSA NCTC12493; experiment: Antimicrobial test (broth microdilution); format: cell-based, methicillin-resistant S. aureus; conditions: for MIC: MHB, 5 × 10^5 CFU/ml, 37°C overnight, 550 nm
Method: as §1

[8] = tested on: S. aureus NCTC10788; experiment: Antimicrobial test (broth microdilution); format: cell-based, Staphylococcus aureus; conditions: for MIC: MHB, 5 × 10^5 CFU/ml, 37°C overnight, 550 nm
Method: as §1

[9] = tested on: E. coli NCTC10418; experiment: Antimicrobial test (broth microdilution); format: cell-based, Escherichia coli; conditions: for MIC: MHB, 5 × 10^5 CFU/ml, 37°C overnight, 550 nm
Method: as §1

[10] = tested on: rat urinary bladder smooth muscle; experiment: Rat urinary bladder smooth muscle test; conditions: organ bath, 37°C, n = 5
Method: (§2) Female Wistar rats (250–300 g) were euthanized by CO2 asphyxiation followed by cervical dislocation under appropriate Home Office (UK) animal licenses. Full urinary bladder and ileum were carefully removed from the abdomen, then placed in cold Kreb's solution (118 mM NaCl, 4.7 mM KCl, 25 mM NaHCO3, 1.15 mM NaH2PO4, 2.5 mM CaCl2, 1.1 mM MgCl2, and 5.6 mM glucose), equilibrated with a carbogen mixture (95% O2, 5% CO2). The prepared smooth muscles linked with transducers were placed in 2 ml capacity organ baths with Kreb's solution flowing through at 2 ml/min and maintained at 37°C with constant bubbling of carbogen gas mixture (95% O2, […]) and equilibrated for 1 h prior to analysis. Then the viability of these smooth muscle preparations was tested by 60 mM KCl. Caeridins were tested at sequential molar concentrations in the range from 10^−6 M to 10^−11 M. Dose-response curves were depicted for each Caeridin on individual smooth muscle preparations (n = 5). Changes in tension of the smooth muscle preparations were detected by pressure transducers connected to a PowerLab System (ADInstruments Pty Ltd.). Data were recorded and calculated to obtain the means of responses and standard error of means (SEM). The dose-response curve of each Caeridin was established using best-fit algorithms through the data analysis package provided by GraphPad Prism (Version 6.0; GraphPad Software Inc., San Diego, CA, USA), and the comparative EC50 value for each peptide was depicted.

[11] = tested on: rat ileum smooth muscle; experiment: Rat ileum smooth muscle test; conditions: organ bath, 37°C, n = 5
Method: as §2

Molecule	haemolytic activity [2]	cytotoxicity to HMEC-1 cells [3]	MIC [4]	MFC [6]	MBC [7]	MIC [7]	MBC [8]	MIC [8]	MBC [9]	MIC [9]	membrane-permeabilising activity on S. aureus [1]	membrane lysis (LDH release) of HMEC-1 ([3]; relative to lysis buffer)	MBC [4]	membrane permeabilisation of E. coli at maximum tested concentration [5]	MIC [6]	other results
CC[C@H](C)[C@H](NC(=O)CN)C(=O)NCC(=O)N[C@@H](C)C(=O)N[C@H](C(=O)N[C@@H](CC(C)C)C(=O)N[C@@H](CCCCN)C(=O)N[C@H](C(=O)N[C@@H](CC(C)C)C(=O)N[C@H](C(=O)N[C@H](C(=O)NCC(=O)N[C@@H](CC(C)C)C(=O)N1CCC[C@H]1C(=O)N[C@@H](C)C(=O)N[C@@H](CC(C)C)C(=O)N[C@H](C(=O)N[C@@H](CO)C(=O)N[C@@H](Cc1c[nH]c2ccccc12)C(=O)N[C@H](C(=O)N[C@@H](CCCCN)C(=O)N[C@@H](CCCNC(=N)N)C(=O)N[C@@H](CCCCN)C(=O)N[C@@H](CCCNC(=N)N)C(=O)N[C@@H](CCC(N)=O)C(=O)N[C@@H](CCC(N)=O)C(N)=O)[C@@H](C)CC)[C@@H](C)CC)[C@@H](C)O)[C@@H](C)O)C(C)C)C(C)C [Melittin, reference compound]	eminent haemolysis from 1 μM	significant cytotoxicity	2 µM	8 µM	4 µM	2 µM										membrane permeability of S. aureus at MBC ([1]; peptide at its MBC, 37°C, 1 × 10^8 CFU/ml, relative to 70% isopropanol): 100%; membrane permeability of S. aureus at MIC ([1]; peptide at its MIC, 37°C, 1 × 10^8 CFU/ml, relative to 70% isopropanol): approximately 50%; LDH release from HMEC-1 ([3]; 0.1 μM, relative to lysis buffer): approximately 10%; membrane permeabilisation of E. coli at MIC and MBC ([5]; 1 × 10^8 CFU/ml, PBS pH 7.4): higher absorbance at 420 nm
GLLDGLLGTLGL-NH2 [Caeridin-1]	weak haemolytic activities	weak cytotoxicity	> 512 µM	> 512 µM	> 512 µM	> 512 µM	> 512 µM	> 512 µM	> 512 µM	> 512 µM	barely showed membrane-permeabilising activity	lower than 5%	> 512 µM	failed to induce membrane permeabilisation	> 512 µM	maximum contraction effect on bladder smooth muscle preparations [10]: 0.3 g; EC50 ([10]; Kreb's solution, 10^−11 to 10^−6 M, read-out: EC50 inducing rat bladder smooth muscle contractions): 5.6 nM
N2H-GLLDSLLGGLGL-CONH2 [S5-Caeridin-1, novel Caeridin peptide from Litoria caerulea skin secretion, synthetic replicate, C-terminally amidated]	weak haemolytic activities	weak cytotoxicity	> 512 µM	> 512 µM	> 512 µM	> 512 µM	> 512 µM	> 512 µM	> 512 µM	> 512 µM	barely showed membrane-permeabilising activity	lower than 5%	> 512 µM	failed to induce membrane permeabilisation	> 512 µM	maximum relaxant effect on ileum smooth muscle preparations [11]: 0.2 g; EC50 ([11]; Kreb's solution, 10^−11 to 10^−6 M, read-out: EC50 causing rat ileum smooth muscle relaxations): 9.5 nM
RPPGFSPFR [Bradykinin, reference compound] [listing 1 of 2 here]			> 512 µM	> 512 µM	> 512 µM	> 512 µM	> 512 µM	> 512 µM	> 512 µM	> 512 µM	barely showed membrane-permeabilising activity		> 512 µM	failed to induce membrane permeabilisation	> 512 µM	
RPPGFSPFR [Bradykinin, reference compound] [listing 2 of 2 here]	weak haemolytic activities	weak cytotoxicity										lower than 5%				
